Source: patent US7968556B2, “Heteroaryl compounds, compositions thereof, and methods of treatment therewith” (Signal Pharmaceuticals, LLC, priority 2006, dated 2011)

Molecular target: T1, Tyk2 (Homo sapiens, UniProt P29597)
T1 construct: 450 ng/ml TYK2 KD (Cama Biosciences 08-147 Lot 06CBS-3022D); purchased Cama Biosciences (so in the source)
T1 sequence (P29597 897-1176 limits assumed): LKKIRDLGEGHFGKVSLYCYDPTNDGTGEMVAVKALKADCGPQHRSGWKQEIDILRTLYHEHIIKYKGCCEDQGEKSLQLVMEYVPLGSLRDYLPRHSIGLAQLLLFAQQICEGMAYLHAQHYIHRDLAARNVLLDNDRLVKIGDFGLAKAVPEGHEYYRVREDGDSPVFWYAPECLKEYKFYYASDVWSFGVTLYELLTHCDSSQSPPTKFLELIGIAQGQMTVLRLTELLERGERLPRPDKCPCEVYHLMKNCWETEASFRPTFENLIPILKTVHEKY
Experiment: Tyk2 HTRF Assay
Format: biochemical
Protocol: The following is an example of an assay that can be used to determine the Tyk2 inhibitory activity of a test compound.
25 μl/well DMSO is added to Columns 2 and 14 (except 28.5 μl is added to well P14 of Greiner 384-well polypropylene plate). 20 μl/well DMSO is added to all remaining wells.
5 mM compound solutions are added by addition of 5 μl of 30 mM compound to 25 μl DMSO in Columns 2 and 14 of plate. 1.5 mM reference control is prepared by addition of 1.5 μl of 30 mM JAK3 Inhibitor VI to 28.5 μl DMSO in Well P14.
Serial dilution is then performed by the following steps: (i) Compounds in Column 2 are mixed by pipetting 20 μl up and down 6X; (ii) 10 μl/well compounds in DMSO are transferred from one column to the next column for Columns 2-11; (iii) wells are mixed by pipetting 20 μl up and down 6×; (iv) tips are washed 3×25 μl DMSO, 2×25 μl next DMSO; (v) steps i-iv repeated for Columns 14-23.
The following buffers are prepared:
Assay Buffer: 50 mM HEPES pH 7.6; 1 mM DTT; 10 mM MgCl2; 0.01% Triton X100; 0.01% BSA; and 0.1 mM EDTA.
Kinase in Assay Buffer: 450 ng/ml TYK2 KD (Cama Biosciences 08-147 Lot 06CBS-3022D).
Substrate/Detection Mixture (1×ATP) in Assay Buffer: 188 nM DyLight 647-Streptavidin (Pierce 21824); 5 μM Biotin-EQEDEPEGDYFEWLE (Lyn Substrate Peptide); 750 ng/ml Eu-anti-phospho-Tyrosine (PerkinElmer AD0069); 62.5 μM ATP; 80 nM Substrate Peptide (American Peptide Company 332722).
Substrate/Detection Mixture (20×ATP) in Assay Buffer: 188 nM DyLight 647-Streptavidin; 5 μM Biotin-EQEDEPEGDYFEWLE; 750 ng/ml Eu-anti-phospho-Tyrosine; 1250 μM ATP; 80 nM Substrate Peptide.
14.5 μl/well Enzyme Mix or Dilution Buffer (Background Controls) is added to Costar 384 well black plates.
Compound addition and mixture is performed by the following steps: (i) 0.5 μl/well DMSO/compounds in DMSO is transferred from Greiner 384-well polypropylene plate to a plate containing 14.5 μl/well Enzyme Mix and Dilution Buffer; (ii) mixed by pipetting 10 μl up and down 4×; (iii) tips are washed 4×10 μl in DMSO, 2×20 μl in other DMSO; (iv) steps i-iii are repeated until all plates are completed.
10 μl/well Substrate/Detection Mixtures is added and incubated at room temperature 2 hours (on shaker for first 2+ minutes).
10 μl/well 50 mM EDTA/0.01% Triton X100 is added and incubated >15 minutes at room temperature (on shaker for first 2+ minutes).
Plates are read at 665 nm and 620 nm emission on Analyst GT protocol HTRF_SP_A (Counts= 665/620×10000).

`NC(=O)c1nc(-c2cccnc2)nc2c1[nH]c(=O)n2[C@H]1CC[C@H](O)CC1` [Compound 50, 9-(trans-4-Hydroxycyclohexyl)-8-oxo-2-(pyridin-3-yl)-8,9-dihydro-7H-purine-6-carboxamide] showed an IC50 of 20.1 to 30 µM.
